From ChEMBL document CHEMBL3399944, “Synthesis and anticancer cell potential of steroidal 16,17-seco-16,17a-dinitriles: identification of a selective inhibitor of hormone-independent breast cancer cells” (Bioorg Med Chem, 2015)
pIC50: −log10 of the molar value.

Legend:
HeLa = assay: Antiproliferative activity against human HeLa cells after 48 hrs by MTT assay; format: functional, cell-based
MDA-MB-231 [1] = assay: Antiproliferative activity against human MDA-MB-231 cells after 48 hrs by MTT assay; format: functional, cell-based; settings: MDA-MB-231, 48 h
MCF7 [2] = assay: Antiproliferative activity against human MCF7 cells after 48 hrs by MTT assay; format: functional, cell-based; settings: MCF7, 48 h
[3] = Antiproliferative activity against human PC3 cells after 48 hrs by MTT assay; format: functional, cell-based; settings: PC-3, 48 h
MRC5 = assay: Antiproliferative activity against human MRC5 cells after 48 hrs by MTT assay; format: cell-based; settings: MRC5, 48 h
MDA-MB-231 [4] = assay: Induction of apoptosis in human MDA-MB-231 cells at IC50 after 48 hrs by Giemsa staining-based light microscopy (reference value: 7%); format: functional
MCF7 [5] = assay: Antiproliferative activity against human MCF7 cells at 10 nM after 48 hrs by MTT assay; format: functional; settings: MCF7, 48 h
MDA-MB-231 [6] = assay: Antiproliferative activity against human MDA-MB-231 cells at 10 nM after 48 hrs by MTT assay; format: functional; settings: MDA-MB-231, 48 h

Row | Compound | pIC50 (HeLa) | pIC50 (MDA-MB-231 [1]) | pIC50 (MCF7 [2]) | pIC50 [3] | pIC50 (MRC5) | Activity (MDA-MB-231 [4]) [%] | inhibition at 0.01 µM (MCF7 [5]) [%] | inhibition at 0.01 µM (MDA-MB-231 [6]) [%]
1 | C[C@]1(CC#N)CC[C@H]2[C@@H](CCC3=C(O)C(=O)CC[C@@]32C)[C@@H]1CC#N | 4.83 | 4.40 | 4.24 | 5.06 | < 4.00 | 11 |  | 
2 | COc1cccc2c1C(=O)c1c(O)c3c(c(O)c1C2=O)C[C@@](O)(C(=O)CO)C[C@@H]3O[C@H]1C[C@H](N)[C@H](O)[C@H](C)O1 [DOXORUBICIN] |  |  | 6.12 | 4.02 |  | 11 |  | 
3 | C[C@]12CCC(=O)C(O)=C1CC[C@@H]1[C@@H]2CC[C@]2(C)C(=O)CC[C@@H]12 [FORMESTANE] | 5.72 | 4.27 | < 4.00 | 4.34 | < 4.00 | 11 |  | 
4 | C[C@]1(CC#N)CC[C@H]2[C@@H](CCC3=CC(=O)C=C[C@@]32C)[C@@H]1CC#N | 4.90 | 6.96 | 6.28 | 4.15 | < 4.00 | 14.1 | 61 | 69
5 | C[C@]1(CC#N)CC[C@H]2[C@@H](CC=C3C[C@@H](O)CC[C@@]32C)[C@@H]1CC#N | 5.67 | 4.46 | 4.52 | 4.72 | < 4.00 | 18 |  | 
6 | C[C@]1(CC#N)CC[C@@H]2c3ccc(O)cc3CC[C@H]2[C@@H]1CC#N | 5.14 | 5.40 | 4.77 | 4.95 | < 4.00 | 11.1 |  | 
7 | C[C@]1(CC#N)CC[C@H]2[C@@H](CCC3=CC(=O)CC[C@@]32C)[C@@H]1CC#N | 5.24 | 4.81 | 4.82 | 5.08 | < 4.00 | 15.9 |  | 
